Consider ten molecules from US11384075B2, “Quinolinone compounds” (Janssen Pharmaceutica NV, priority 2017, dated 2022).

Structures are written as SMILES.

The target of assay [1] is T1, human FGFR3 wild type enzyme (cytoplasmic domain) (Homo sapiens, UniProt P22607).
T1 construct: human FGFR3 wild type enzyme (cytoplasmic domain, from Carna Biosciences); purchased Carna Biosciences
The experiment in a line: FGFR3 wild type mobility shift assay (enzymatic assay). The class given is biochemical. As to conditions: 75 μM ATP, 50 minutes at 30° C., Caliper EZ reader II. The procedure: FGFR3 Wild Type Mobility Shift Assay (Enzymatic Assay)
(§1) In a final reaction volume of 25 μL, 0.04 ng/μL human FGFR3 wild type enzyme (cytoplasmic domain, from Carna Biosciences) was incubated with 75 μM ATP, 1 μM FL-peptide 30 substrate and 250 nL of testing compound (1% DMSO final) in assay buffer (100 mM HEPES pH 7.4, 10 mM MgCl2, 0.003% Brij35, 1 mM DTT). After incubation for 50 minutes at 30° C. the reaction was stopped with 10 μL of 0.5M EDTA pH 8.0, and then 25 μL of reaction mixture was transferred to reading plate and measured on Caliper EZ reader II. The substrate-product conversion rate was used as raw data for normalization and concentration-response curve (10 dose points with 4× serial dilution, starting with 10 μM) was plotted using Prism to calculate IC50 (M), pIC50 (−log IC50) and HillSlope value.

In assay [2] the target is T2, human FGFR3 V555M enzyme (cytoplasmic domain carrying V555M mutation) (Homo sapiens, UniProt P22607, V555M).
T2 construct: human FGFR3 V555M enzyme (cytoplasmic domain carrying V555M mutation, from Carna Biosciences); purchased Carna Biosciences
T2 sequence (P22607 397-806 V555M limits assumed): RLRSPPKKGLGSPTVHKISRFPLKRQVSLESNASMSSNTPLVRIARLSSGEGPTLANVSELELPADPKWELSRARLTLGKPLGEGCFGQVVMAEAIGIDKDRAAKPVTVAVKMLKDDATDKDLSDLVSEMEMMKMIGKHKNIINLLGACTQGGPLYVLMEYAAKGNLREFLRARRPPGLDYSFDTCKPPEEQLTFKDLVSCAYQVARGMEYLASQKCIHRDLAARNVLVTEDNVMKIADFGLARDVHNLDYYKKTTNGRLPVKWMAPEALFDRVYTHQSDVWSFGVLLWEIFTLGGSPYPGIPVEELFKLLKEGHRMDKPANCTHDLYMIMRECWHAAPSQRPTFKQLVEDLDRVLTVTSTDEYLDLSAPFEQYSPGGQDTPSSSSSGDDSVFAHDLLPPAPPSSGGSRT
The assay is described as follows: FGFR3 V555M mobility shift assay (enzymatic assay). It counts as biochemical. As to conditions: 30 μM ATP, 45 minutes at 30° C., Caliper EZ reader II. The method, then:
FGFR3 V555M Mobility Shift Assay (Enzymatic Assay)
as §1, with “FGFR3 V555M” for “FGFR3 wild type”, “(cytoplasmic domain carrying V555M mutation,” for “(cytoplasmic domain,”, “with 30” for “with 75”, “for 45” for “for 50”

Assay [3] concerns NIH/3T3 cells transfected with the same control vector. The assay is described as follows: NIH/3T3 mock cell proliferation assay (counter assay, general toxicity). The class given is cell-based. As to conditions: Mus musculus, NIH3T3, 72 h, 72-hr incubation, CellTiter Glo, starting with 30 μM; counter assay for general toxicity; read-out: NIH/3T3 MOCK CTG (IC50). The procedure:
NIH/3T3 Mock Cell Proliferation Assay
(§2) In day 1, 90 μL of cell suspension (NIH/3T3 cells transfected with the same control vector as in the above two proliferation assays) (total 30,000 cells per well in growth medium (DMEM containing 1% Glutamax, 10% FBS and 1% Pen/Strep)) was seeded in a 96-well plate and then incubated overnight at 37° C. and 5% CO2. In day 2, 10 μL of growth medium containing 10-fold stock solution of testing compound was added into cell cultures (9 dose points with 3× serial dilution, starting with 30 μM, 0.3% DMSO final). After 72-hr incubation at 37° C. and 5% CO2, in day 5 a volume of 50 μL CellTiter Glo (CTG) reagent was added into cell-containing 96-well plate and the plate was incubated at room temperature for 10 minutes before RLUs (relative light unit) were measured on a microplate reader with luminescence detection module. The RLU value was normalized to survival % and concentration-response curve was plotted using Prism to calculate IC50 (M), pIC50 (−log IC50) and HillSlope value.

In assay [4] the target is T3, NIH/3T3 cells overexpressing FGFR3 WT-TACC3 fusion protein (Homo sapiens, UniProt P22607).
T3 construct: NIH/3T3 FGFR3 WT-TACC3 CTG (IC50); other: 72-hr incubation, CellTiter Glo, starting with 10 μM; fused on or other part: Q9Y6A5 (Transforming acidic coiled-coil-containing protein 3)
T3 sequence (P22607 whole entry, change not shown, the tested form may be a part): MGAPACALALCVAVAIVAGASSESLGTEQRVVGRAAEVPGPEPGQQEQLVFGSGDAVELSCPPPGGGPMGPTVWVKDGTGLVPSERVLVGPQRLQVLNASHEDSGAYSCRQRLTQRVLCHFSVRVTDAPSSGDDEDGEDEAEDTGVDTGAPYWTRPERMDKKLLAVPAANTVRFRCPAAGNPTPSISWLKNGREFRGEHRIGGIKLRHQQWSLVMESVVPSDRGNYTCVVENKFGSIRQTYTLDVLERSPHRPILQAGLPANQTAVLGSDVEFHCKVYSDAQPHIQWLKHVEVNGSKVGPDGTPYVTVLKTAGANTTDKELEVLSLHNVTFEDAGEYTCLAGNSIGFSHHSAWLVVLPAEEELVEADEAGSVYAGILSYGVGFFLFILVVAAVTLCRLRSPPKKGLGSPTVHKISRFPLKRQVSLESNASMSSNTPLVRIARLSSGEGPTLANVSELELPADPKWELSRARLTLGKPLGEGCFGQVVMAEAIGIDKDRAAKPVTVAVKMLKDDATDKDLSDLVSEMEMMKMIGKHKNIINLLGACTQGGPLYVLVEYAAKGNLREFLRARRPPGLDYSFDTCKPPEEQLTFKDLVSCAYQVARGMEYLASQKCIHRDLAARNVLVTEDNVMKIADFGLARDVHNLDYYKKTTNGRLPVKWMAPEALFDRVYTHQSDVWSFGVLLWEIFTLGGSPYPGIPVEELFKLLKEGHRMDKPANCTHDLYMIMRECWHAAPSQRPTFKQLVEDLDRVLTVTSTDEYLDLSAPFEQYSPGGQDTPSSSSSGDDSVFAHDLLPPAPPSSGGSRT
The experiment in a line: NIH/3T3 FGFR3 WT-TACC3 cell proliferation assay. It counts as cell-based. As to conditions: 72-hr incubation, CellTiter Glo, starting with 10 μM; read-out: NIH/3T3 FGFR3 WT-TACC3 CTG (IC50). The method, then:
NIH/3T3 FGFR3 WT-TACC3 Cell Proliferation Assay
as §2, with “cells overexpressing FGFR3 WT-TACC3 fusion protein)” for “cells transfected with the same control vector as in the above two proliferation assays)”, “with 4×” for “with 3×”, “with 10” for “with 30”, “μM, 0.1%” for “μM, 0.3%”
For orientation: Cellular ATP, detected with luciferase, serves as a proxy for viable cell number.

Assay [5] concerns the target T4, NIH/3T3 cells overexpressing FGFR3 V555M-TACC3 fusion protein (Homo sapiens, UniProt P22607, V555M, cells depend on it).
T4 construct: NIH/3T3 FGFR3 V555M-TACC3 CTG (IC50); other: 72-hr incubation, CellTiter Glo, starting with 10 μM; fused on or other part: Q9Y6A5 (Transforming acidic coiled-coil-containing protein 3)
The assay is described as follows: NIH/3T3 FGFR3 V555M-TACC3 cell proliferation assay. It counts as cell-based. As to conditions: 72-hr incubation, CellTiter Glo, starting with 10 μM; read-out: NIH/3T3 FGFR3 V555M-TACC3 CTG (IC50). The procedure: NIH/3T3 FGFR3 V555M-TACC3 Cell Proliferation Assay
as §2, with “cells overexpressing FGFR3 V555M-TACC3 fusion protein)” for “cells transfected with the same control vector as in the above two proliferation assays)”, “with 4×” for “with 3×”, “with 10” for “with 30”, “μM, 0.1%” for “μM, 0.3%”

T4 sequence (P22607 whole entry V555M, the tested form may be a part): as the sequence (P22607 whole entry, change not shown, the tested form may be a part) above, with V555M counted along it
T1 sequence (P22607 397-806 limits assumed): as the sequence (P22607 397-806 V555M limits assumed) above, with M159V counted along it

Take `CC(Nc1c(-c2nc3ccc(N4CCOCC4)c(F)c3[nH]2)c(=O)[nH]c2ccccc12)c1ncccn1` (single isomer, unassigned) [Compound 23a, (S*)-3-(7-fluoro-6-morpholino-1H-benzo[d]imidazol-2-yl)-4-((1-(pyrimidin-2-yl)-ethyl)amino)quinolin-2(1H)-one]: the IC50 in assay [1] turned out to be 0.591 nM; in assay [2], 0.245 nM; in assay [3] it was 15300 nM. The GI50 in assay [4] was determined as 8.34 nM; in assay [5], 13.4 nM.
In the same order, the values of `CC(Nc1c(-c2nc3cc(C(F)(F)F)c(N4CCN(C)CC4)cc3[nH]2)c(=O)[nH]c2ccccc12)c1ncccn1` (single isomer, unassigned) [Compound 25a, (S*)-3-(6-(4-methylpiperazin-1-yl)-5-(trifluoromethyl)-1H-benzo[d]imidazol-2-yl)-4-((1-(pyrimidin-2-yl)ethyl)amino)quinolin-2(1H)-one] are 1.22 nM, 1.03 nM, 2260 nM, 5.16 nM and 4.82 nM.
On the same counts, the results for `CC(Nc1c(-c2nc3ccc(N4CCO[C@@H](C)C4)cc3[nH]2)c(=O)[nH]c2ccccc12)c1ncccn1` (single isomer, unassigned) [Compound 26a, 3-(6-((S)-2-methylmorpholino)-1H-benzo[d]imidazol-2-yl)-4-(((S*)-1-(pyrimidin-2-yl)-ethyl)amino)quinolin-2(1H)-one] are 0.317 nM, 0.178 nM, 2580 nM, 2.22 nM and 4.3 nM.
On the same counts, the results for `CC(Nc1c(-c2nc3cc(F)c(N4CCOCC4)cc3[nH]2)c(=O)[nH]c2ccccc12)c1ncccn1` (single isomer, unassigned) [Compound 27a, (S*)-3-(5-fluoro-6-morpholino-1H-benzo[d]imidazol-2-yl)-4-((1-(pyrimidin-2-yl)-ethyl)amino)quinolin-2(1H)-one] are 0.445 nM, 0.255 nM, 3880 nM, 6.93 nM and 5.8 nM.
Take `C[C@H](Nc1c(-c2nc3ccc(N4CCCCC4)cc3[nH]2)c(=O)[nH]c2ccccc12)c1ncccn1` (single isomer, unassigned) [Compound 28a, (S*)-3-(6-(piperidin-1l-yl)-1H-benzo[d]imidazol-2-yl)-4-((1-(pyrimidin-2-yl)ethyl)-amino)quinolin-2(1H)-one]: the IC50 in assay [1] turned out to be 0.552 nM; in assay [2] it was 0.302 nM; in assay [3] it was 7220 nM. Further, the GI50 came out at 5.49 nM in assay [4] and 8.35 nM in assay [5].
On to `CC(Nc1c(-c2nc3ccc(C4CCOCC4)cc3[nH]2)c(=O)[nH]c2ccccc12)c1ncccn1` (single isomer, unassigned) [Compound 29a, (S*)-4-((1-(pyrimidin-2-yl)ethyl)amino)-3-(6-(tetrahydro-2H-pyran-4-yl)-1H-benzo[d]-imidazol-2-yl)quinolin-2(1H)-one], for which the IC50 in assay [1] was determined as 0.242 nM; in assay [2], 0.15 nM; in assay [3], 4690 nM. Also, the figures for the GI50 in assay [4] and in assay [5] were 8.46 nM and 10.8 nM, respectively.
On to `CCCC(Nc1c(-c2nc3ccc(N4CCOCC4)cc3[nH]2)c(=O)[nH]c2ccccc12)c1ncccn1` (single isomer, unassigned) [Compound 31a, (S*)-3-(6-morpholino-1H-benzo[d]imidazol-2-yl)-4-((1-(pyrimidin-2-yl)butyl)amino)quinolin-2(1H)-one], for which the IC50 worked out at 0.843 nM in assay [1], 0.181 nM in assay [2] and 2920 nM in assay [3]. Further, the figures for the GI50 in assay [4] and in assay [5] were 25.7 nM and 14.3 nM, respectively.
In the same order, the values of `Cc1ccnc(C(C)Nc2c(-c3nc4ccc(N5CCOCC5)cc4[nH]3)c(=O)[nH]c3ccccc23)n1` (single isomer, unassigned) [Compound 34a, (S*)-4-((1-(4-methylpyrimidin-2-yl)ethyl)amino)-3-(6-morpholino-1H-benzo[d]imidazol-2-yl)quinolin-2(1H)-one] are 9 nM, 1.59 nM, 1320 nM, 43.1 nM and 70.4 nM.
As for `CC(Nc1c(-c2nc3ccc(N4CCOCC4)cc3[nH]2)c(=O)[nH]c2ccccc12)c1cnccn1` (single isomer, unassigned) [Compound 35b, (S*)-3-(6-morpholino-1H-benzo[d]imidazol-2-yl)-4-((1-(pyrazin-2-yl)ethyl)amino)-quinolin-2(1H)-one], the IC50 in assay [1] amounted to 11.1 nM; in assay [2], 2.86 nM; in assay [3], 1680 nM. The GI50 in assay [4] came to 127 nM; in assay [5], 197 nM.
On the same counts, the results for `CC(Nc1c(-c2nc3ccc(N4CCOCC4)cc3[nH]2)c(=O)[nH]c2ccccc12)c1ccn(C(C)C)n1` (single isomer, unassigned) [Compound 36b, (S*)-4-((1-(1-isopropyl-1H-pyrazol-3-yl)ethyl)amino)-3-(6-morpholino-1H-benzo[d]-imidazol-2-yl)quinolin-2(1H)-one] are 7.32 nM, 2.35 nM, 1520 nM, 315 nM and 170 nM.
